Some results are limits rather than exact numbers.

The values below come from patent publication US12286411B2, “Indane derivatives for use in the treatment of bacterial infection” (priority 2018, dated 2025).

The target in experiment [1] is T1, LasB elastase (dialysed supernatant from P. aeruginosa PAO1) (Pseudomonas aeruginosa, UniProt P14756).
T1 construct: Culture supernatants are recovered by centrifugation and filtrated through a 0.22 μM filter; endogenous in cells; host or cells: P. aeruginosa PAO1 culture supernatant, dialysed
The experiment can be described thus: Elastin assay to determine % inhibition (Elastin Congo-Red, dialysed PAO1 supernatant). Format: biochemical. As to conditions: read-out: Elastin hydrolysis % inhibition @ 50/25 μM inhibitor concentration. On the procedure:
Experiments were therefore conducted (1) to measure the potency of inhibition of compounds of the invention against purified Pseudomonas aeruginosa LasB enzyme and also experiments were conducted (2) to measure the ability of compounds of the invention to inhibit LasB-catalysed elastin degradation. The first assay uses a commercial fluorescent synthetic peptide and purified LasB enzyme. The LasB hydrolysis kinetics are measured allowing the determination of the IC50 and Ki of the inhibitors; the second is a more physiological assay using dialysed Pseudomonas aeruginosa supernatant as source of enzyme, plus its natural substrate Elastin. It is an “end point assay” that determines the percentage of LasB inhibition by each compound for one particular time point and inhibitor concentration. Technical details are described below:
The Elastin assay uses as source of enzyme dialysed supernatant from P. aeruginosa PAO1 and the Elastin Congo-Red as substrate. The natural LasB substrate, elastin, is complexed with the congo-red dye (Elastin Congo-Red, ECR). The elastolysis activity from the culture supernatant will degrade elastin and release the congo-red dye into the supernatant. This red dye release can be measured with a spectrophotometer.
Method: To determine LasB elastase activity and assess compound inhibition, an overnight culture of P. aeruginosa strain PA01 is diluted in LB medium. After reaching an ° Dam. of 0.6, this culture is diluted and incubated for additional 18-24 hours in a shaking incubator. Culture supernatants are recovered by centrifugation and filtrated through a […] filter. These supernatants are dialysed (filtration molecules <20 kDa) into a 50 mM Tris-HCl pH 7.4, 2.5 mM CaCl2 solution at 4° C. under agitation for 24 hours. Supernatant dialysed is then mixed volume/volume with the ECR suspension (20 mg/mL of ECR in 100 mM Tris-HCl pH 7.4 buffer supplemented with 1 mM CaCl2) supplemented with Triton X100 (final concentration of 0.01%) in presence of DMSO (positive control) and/or different concentrations of compound (routinely 50 to 1.56 μM). As a negative control, the dialysed supernatant is replaced by Tris-HCl solution (50 mM Tris-HCl pH 7.4, 2.5 mM CaCl2). The mixed reaction is then incubated overnight in a 37° C. shaking incubator. The reaction supernatant is recovered by centrifugation and the release of congo-red is measured by its absorbance at 495 nm (OD495nm).
Percentage inhibition is determined using the following equation: ((OD495nm value of positive control−OD495nm value of negative control)−(OD495nm value of treated supernatant OD495nm value of negative control))/(OD495nm value of positive control−OD495nm value of negative control)×100.

In experiment [2] the test system is Pseudomonas aeruginosa (PAO1). Kind of experiment: Mouse model of Pseudomonas aeruginosa lung infection. Format: in vivo. As to conditions: mice infected intranasally with wild-type PAO1, compound i.v. 1 h and 2 h post infection, 10 and 30 mg/kg, 24 hours post infection. The method, then:
Mice were dosed by intranasal inoculation of PA (PAO1), then scarified after 24 hours. The extent of infection in the lung was quantified by bacterial load (CFU determination, colony forming units) and the levels of proinflammatory IL-1β. Statistical analysis on both readouts were performed by ANOVA with a Dunnett post-test.
Compounds were administered intravenously in a two-dose regimen (1 hour and 2 hours post infection) at two different doses (10 and 30 mg/kg).

T1 sequence (P14756 198-498): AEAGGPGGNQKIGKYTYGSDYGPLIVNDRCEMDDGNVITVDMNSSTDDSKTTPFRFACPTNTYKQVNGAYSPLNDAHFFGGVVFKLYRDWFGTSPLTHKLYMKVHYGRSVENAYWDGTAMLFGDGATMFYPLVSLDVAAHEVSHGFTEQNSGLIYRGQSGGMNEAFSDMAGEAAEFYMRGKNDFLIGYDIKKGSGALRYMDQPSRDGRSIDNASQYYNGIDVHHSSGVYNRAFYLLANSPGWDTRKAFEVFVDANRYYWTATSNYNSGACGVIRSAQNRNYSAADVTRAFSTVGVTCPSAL

For the compound `O=C(O)CC1(C(=O)NCc2nc3ccc(OCCCO)cc3s2)Cc2ccccc2C1` [Example 1, 2-[2-[[6-(3-hydroxypropoxy)-1,3-benzothiazol-2-yl]methylcarbamoyl]indan-2-yl]acetic acid], the inhibition at 25 µM in experiment [1] was > 75%. Same read-out and setting: with `CCCOc1ccc2nc(CNC(=O)C3(CC(=O)O)Cc4ccccc4C3)sc2c1` [Example 2, 2-[2-[(6-propoxy-1,3-benzothiazol-2-yl)methylcarbamoyl]indan-2-yl]acetic acid] the figure was > 75%; with `COc1cc2sc(CNC(=O)C3(CC(=O)O)Cc4ccccc4C3)nc2cc1OCCCN(C)C` [Example 3, 2-[2-[[5-[3-(dimethylamino)propoxy]-6-methoxy-1,3-benzothiazol-2-yl]methylcarbamoyl]indan-2-yl]acetic acid], > 75%.

Regarding `COc1cc2sc(CNC(=O)C3(CC(=O)[O-])Cc4ccccc4C3)nc2cc1OCCC[N+](C)(C)C` [Example 4, 2-[2-[[6-methoxy-5-[3-(trimethylammonio)propoxy]-1,3-benzothiazol-2-yl]methylcarbamoyl]indan-2-yl]acetate], the inhibition at 25 µM in experiment [1] is > 75%. For the same compound, the “production and activation of IL-1β in the lung” value in experiment [2] (FIG. 2) is “inhibited the production and activation of IL-1β in mice infected by wild-type PA (PA01) at a similar level than the lasB deleted mutant”. Moreover, the “extent of infection in the lung (CFU levels)” value in experiment [2] (FIG. 3) is reported as “reduced the extent of infection in the lung to the level of the LasB deleted mutant”.

`COc1cc2sc(CNC(=O)C3(CC(=O)[O-])Cc4ccccc4C3)nc2cc1OCCOCC[N+](C)(C)C` [Example 5, 2-[2-[[6-methoxy-5-[2-[2-(trimethylammonio)ethoxy]ethoxy]-1,3-benzothiazol-2-yl]methylcarbamoyl]indan-2-yl]acetate]: the inhibition at 25 µM in experiment [1] was in the range of 60 to 75%.

As for `COc1cc2sc(CNC(=O)C3(CC(=O)[O-])Cc4cc(F)c(F)cc4C3)nc2cc1OCCOCC[N+](C)(C)C` [Example 6, 2-[5,6-difluoro-2-[[6-methoxy-5-[2-[2-(trimethylammonio)ethoxy]ethoxy]-1,3-benzothiazol-2-yl]methylcarbamoyl]indan-2-yl]acetate], the inhibition at 25 µM in experiment [1] is > 75%. `COc1cc2sc(CNC(=O)C3(CC(=O)[O-])Cc4cc(F)c(F)cc4C3)nc2cc1OCC[N+](C)(C)C` [Example 7, 2-[5,6-difluoro-2-[[6-methoxy-5-[2-(trimethylammonio)ethoxy]-1,3-benzothiazol-2-yl]methylcarbamoyl]indan-2-yl]acetate]: in experiment [1], the inhibition at 25 µM lay within 60 to 75%.
